Data from ChEMBL document CHEMBL1828514, “Comparison of the reactivity of antimalarial 1,2,4,5-tetraoxanes with 1,2,4-trioxolanes in the presence of ferrous iron salts, heme, and ferrous iron salts/phosphatidylcholine” (J Med Chem, 2011).
Activity calls are given as the source filed them. The rule behind the calls is not given here.

Columns and labels:
[1] = test system: Plasmodium falciparum; test: Antimalarial activity against Plasmodium falciparum 3D7 assessed as inhibition of [3H]hypoxanthine incorporation after 48 hrs by liquid scintillation counting; type: functional, organism-based
[2] = Induction of TEMPO adduct formation after 24 hrs in presence of 2,2,6,6-tetramethyl-1-piperidine-1-oxyl and ferrous sulfate by LC/MS analysis
[3] = Induction of formation of Manganese-TPC adduct from reaction with manganese(2) tetraphenylporphyrin; type: physicochemical
[4] = Chemical stability of the compound assessed as iron-mediated decomposition after 24 hrs by LC/MS analysis; type: physicochemical
[5] = Induction of oxyl radical formation from reaction with ferrous salt in the presence of 2,2,6,6-tetramethyl-1-piperidine-1-oxyl after 24 hrs by spin-trapping and LC/MS analysis; type: physicochemical
[6] = Induction of formation of chlorin-type adduct from reaction with iron(2) tetraphenylporphyrin; type: physicochemical
[7] = Induction of formation of demetalated adduct from reaction with iron(2) tetraphenylporphyrin; type: physicochemical
[8] = Induction of oxyl radical formation from reaction with ferrous heme assessed as decrease in heme concentration by HPLC analysis relative to control; type: physicochemical; design: scale not given: the % may be the effect or the level left
[9] = Induction of 2-Linoleoyl-1-palmitoyl-sn-phosphotidylcholine peroxidation in the presence of Ferrous sulphate after 24 hrs by LC/MS analysis; type: functional
[10] = Induction of alkylated heme adduct formation from reaction with ferrous heme by LC/MS analysis
[11] = Induction of 2-Linoleoyl-1-palmitoyl-sn-phosphotidylcholine peroxidation in the presence of ferrous sulphate after 24 hrs by ESI/MS analysis; type: functional
[12] = Induction of oxyl radical formation from reaction with iron(2) gluconate after 12 hrs by LC/MS analysis; type: physicochemical

SMILES	IC50 [1] [nM]	Activity [2]	Stability [4]	Activity [8] [%]	Activity [9]	Activity [10]	other results
CC(CN1CCNCC1)C(=O)CC1CCC2(CC1)OOC1(OO2)C2CC3CC(C2)CC1C3 (centres undefined)	1.4	Active	Unstable	53	Active	Active	Activity [3]: Active; Activity [5]: Active; Activity [6]: Active; Activity [7]: Active
O=C(CC1CCC2(CC1)OOC1(OO2)C2CC3CC(C2)CC1C3)NCc1ccc(F)cc1 (centres undefined)	3						Activity [11]: Active; Activity [12]: Active
O=C(CC1CCC2(CC1)OOC1(OO2)C2CC3CC(C2)CC1C3)N1CCN(C2CCNCC2)CC1 (centres undefined)	0.4		Unstable	38	Active	Active	
C[C@@H]1CC[C@H]2[C@@H](C)C(=O)O[C@@H]3O[C@@]4(C)CC[C@@H]1[C@]32OO4 [ARTEMISININ]				70			Activity [11]: inactive
O=C(CC1CCC2(CC1)OOC1(OO2)C2CC3CC(C2)CC1C3)NC1CC1 (centres undefined)	2.3	Active					
CN1CCN(C2CCN(C(=O)C[C@H]3CC[C@]4(CC3)OO[C@]3(O4)C4CC5CC(C4)CC3C5)CC2)CC1	0.5		Unstable		Active		
CCOC(=O)CC1CCC2(CC1)OOC1(OO2)C2CC3CC(C2)CC1C3 (centres undefined)	10	Active					
O=C(CC1CCC2(CC1)OOC1(OO2)C2CC3CC(C2)CC1C3)N1CCOCC1 (centres undefined)	5.2					Active	
CC(C)(N)CNC(=O)C[C@H]1CC[C@]2(CC1)OO[C@]1(O2)C2CC3CC(C2)CC1C3 [OZ277]							Activity [5]: Active
CC(C)CN1CCN(C(=O)C[C@H]2CC[C@]3(CC2)OO[C@]2(O3)C3CC4CC(C3)CC2C4)CC1	2.1		Unstable		Active	Active	
